# Measurements reported in ChEMBL document CHEMBL1129537, “The squalestatins: inhibitors of squalene synthase. Enzyme inhibitory activities and in vivo evaluation of C3-modified analogues” (J Med Chem, 1996).
# Key:
# Squalene synthase = biological target: T1, Squalene synthase (Rattus norvegicus, UniProt Q02769); assay: In vitro inhibitory activity against Squalene synthase from rats
# T1 sequence (Q02769 whole entry): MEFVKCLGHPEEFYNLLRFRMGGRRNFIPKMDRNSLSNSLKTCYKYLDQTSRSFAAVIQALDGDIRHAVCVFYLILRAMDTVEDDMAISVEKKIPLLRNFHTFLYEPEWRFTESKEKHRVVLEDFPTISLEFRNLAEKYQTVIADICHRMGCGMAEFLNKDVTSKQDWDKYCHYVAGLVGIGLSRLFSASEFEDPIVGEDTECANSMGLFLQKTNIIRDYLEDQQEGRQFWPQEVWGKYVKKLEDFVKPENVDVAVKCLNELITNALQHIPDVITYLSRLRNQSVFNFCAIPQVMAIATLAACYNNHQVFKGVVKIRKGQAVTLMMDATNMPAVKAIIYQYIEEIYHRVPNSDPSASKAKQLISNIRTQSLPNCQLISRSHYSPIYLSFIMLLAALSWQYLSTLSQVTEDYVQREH
# [1] = Effect on % of cholesterol reduction measured on serum cholesterol level in marmosets after single iv dose 10 mg/kg on day 7; type: functional, Callitrichinae
# [2] = Effect on % of cholesterol reduction measured on serum cholesterol level in marmosets after single iv dose 30 mg/kg on day 2; type: functional, Callitrichinae
# [3] = Effect on % of cholesterol reduction measured on serum cholesterol level in marmosets after single iv dose (3 times a day for 3 days) 16.7 mg/kg on day 7; type: functional, Callitrichinae
# [4] = Effect on % of cholesterol reduction measured on serum cholesterol level in marmosets after single iv dose 50 mg/kg on day 7; type: functional, Callitrichinae
# [5] = Effect on % of cholesterol reduction measured on serum cholesterol level in marmosets after single iv dose 30 mg/kg on day 3; type: functional, Callitrichinae
# [6] = Effect on % of cholesterol reduction measured on serum cholesterol level in marmosets after single iv dose 50 mg/kg on day 3; type: functional, Callitrichinae
# [7] = Effect on % of cholesterol reduction measured on serum cholesterol level in marmosets after single iv dose 16.7 mg/kg on day 2; type: functional, Callitrichinae
# [8] = Effect on % of cholesterol reduction measured on serum cholesterol level in marmosets after single iv dose 30 mg/kg on day 7; type: functional, Callitrichinae
# [9] = Effect on % of cholesterol reduction measured on serum cholesterol level in marmosets after single iv dose 10 mg/kg on day 2; type: functional, Callitrichinae
# [10] = Effect on % of cholesterol reduction measured on serum cholesterol level in marmosets after single iv dose 50 mg/kg on day 2; type: functional, Callitrichinae
# [11] = Effect on % of cholesterol reduction measured on serum cholesterol level in marmosets after single iv dose 10 mg/kg on day 3; type: functional, Callitrichinae
# [12] = Effect on % of cholesterol reduction measured on serum cholesterol level in marmosets after single iv dose 16.7 mg/kg on day 3; type: functional, Callitrichinae
SMILES,IC50 (Squalene synthase) [nM],other results
C=C(CC[C@]12O[C@H](CNC(N)=O)[C@@](O)(C(=O)O)[C@](C(=O)O)(O1)[C@H](OC(=O)/C=C/[C@@H](C)C[C@@H](C)CC)[C@H]2O)[C@@H](OC(C)=O)[C@H](C)Cc1ccccc1,3,–
C=C(CC[C@]12O[C@H](CN)[C@@](O)(C(=O)O)[C@](C(=O)O)(O1)[C@H](OC(=O)/C=C/[C@@H](C)C[C@@H](C)CC)[C@H]2O)[C@@H](OC(C)=O)[C@H](C)Cc1ccccc1,4,–
C=C(CC[C@]12O[C@H](CN(C)C)[C@@](O)(C(=O)O)[C@](C(=O)O)(O1)[C@H](OC(=O)/C=C/[C@@H](C)C[C@@H](C)CC)[C@H]2O)[C@@H](OC(C)=O)[C@H](C)Cc1ccccc1,10,–
C=C(CC[C@]12O[C@H](CN=C(N)N)[C@@](O)(C(=O)O)[C@](C(=O)O)(O1)[C@H](OC(=O)/C=C/[C@@H](C)C[C@@H](C)CC)[C@H]2O)[C@@H](OC(C)=O)[C@H](C)Cc1ccccc1,65,–
C=C(CC[C@]12O[C@H](C(C)=O)[C@@](O)(C(=O)O)[C@](C(=O)O)(O1)[C@H](OC(=O)/C=C/[C@@H](C)C[C@@H](C)CC)[C@H]2O)[C@@H](OC(C)=O)[C@H](C)Cc1ccccc1,11,–
C=C(CC[C@]12O[C@H](CO)[C@@](O)(C(=O)O)[C@](C(=O)O)(O1)[C@H](OC(=O)/C=C/[C@@H](C)C[C@@H](C)CC)[C@H]2O)[C@@H](OC(C)=O)[C@H](C)Cc1ccccc1,–,Reduction [1]: 14%; Reduction [2]: 30%; Reduction [3]: 32%; Reduction [4]: 28%; Reduction [5]: 20%; Reduction [6]: 21%; Reduction [7]: 47%; Reduction [8]: 16%; Reduction [9]: 5%; Reduction [10]: 31%; Reduction [11]: 2%; Reduction [12]: 62%

# Further lines, with some results ahead:
IC50 (Squalene synthase) [nM],SMILES,other results
> 1000,C=C(CC[C@]12O[C@H](COC)[C@@](O)(C(=O)O)[C@](C(=O)O)(O1)[C@H](O)[C@H]2O)[C@@H](OC(C)=O)[C@H](C)Cc1ccccc1,–
> 1000,C=C(CC[C@]12O[C@H](CN)[C@@](O)(C(=O)O)[C@](C(=O)O)(O1)[C@H](O)[C@H]2O)[C@@H](OC(C)=O)[C@H](C)Cc1ccccc1,–
13,C=C(CC[C@]12O[C@H](COC)[C@@](O)(C(=O)O)[C@](C(=O)O)(O1)[C@H](OC(=O)/C=C/[C@@H](C)C[C@@H](C)CC)[C@H]2O)[C@@H](OC(C)=O)[C@H](C)Cc1ccccc1,–
> 1000,C=C(CC[C@]12O[C@H](CNC(N)=O)[C@@](O)(C(=O)O)[C@](C(=O)O)(O1)[C@H](O)[C@H]2O)[C@@H](OC(C)=O)[C@H](C)Cc1ccccc1,–
1000,C=C(CC[C@]12O[C@H](CNS(=O)(=O)C(F)(F)F)[C@@](O)(C(=O)O)[C@](C(=O)O)(O1)[C@H](O)[C@H]2O)[C@@H](OC(C)=O)[C@H](C)Cc1ccccc1,–
500,C=C(CC[C@]12O[C@H](C(C)=O)[C@@](O)(C(=O)O)[C@](C(=O)O)(O1)[C@H](O)[C@H]2O)[C@@H](OC(C)=O)[C@H](C)Cc1ccccc1,–
60,C=C(CC[C@]12O[C@H](CNS(=O)(=O)C(F)(F)F)[C@@](O)(C(=O)O)[C@](C(=O)O)(O1)[C@H](OC(=O)/C=C/[C@@H](C)C[C@@H](C)CC)[C@H]2O)[C@@H](OC(C)=O)[C@H](C)Cc1ccccc1,–
